Here are results for twelve compounds from ChEMBL document CHEMBL2407078, “Indole-diterpenoids with anti-H1N1 activity from the aciduric fungus Penicillium camemberti OUCMDZ-1492” (J Nat Prod, 2013).

For the test, the system named is Influenza A virus (A/Puerto Rico/8/1934(H1N1)). Put plainly: Antiviral activity against Influenza A virus (A/Puerto Rico/8/34(H1N1)) PR/8 infected in MDCK cells assessed as protection against virus-induced cytopathogenicity after 48 hrs by crystal-violet staining-based assay. Format: functional, organism-based. The settings on record: PR/8, MDCK.
As a reminder, the IC50 is the concentration that inhibits the measured activity by half. With `CC(C)(O)[C@H]1O[C@H]2CC[C@@]3(C)[C@@H](CC[C@H]4Cc5c([nH]c6ccccc56)[C@@]43C)C2=CC1=O` [DEHYDROXYPAXILLINE], the IC50 is > 150 µM.
Then `CC(C)(O)[C@H]1O[C@H]2CC[C@@]3(C)[C@@](O)(CC[C@H]4Cc5c([nH]c6ccccc56)[C@@]43C)C2=CC1=O` [PAXILLINE], with 17.7 µM; and `CC(C)(O)[C@@H]1CC[C@]2(C(=O)O)[C@H](CC[C@@]3(C)[C@H]2CC[C@H]2Cc4c([nH]c5ccccc45)[C@@]23C)O1`, with 38.9 µM.
Then `CC(C)=CCC[C@]1(C)[C@@H](O)CC[C@@]2(C)[C@H]1CC[C@H]1Cc3c([nH]c4ccccc34)[C@@]12C` [EMINDOLE SB], with 26.2 µM.
Regarding `CC(O)(CO)[C@H]1O[C@H]2CC[C@@]3(C)[C@@](O)(CC[C@H]4Cc5c([nH]c6ccccc56)[C@@]43C)C2=CC1=O` (some centres not stated), the IC50 turned out to be 125 µM.
As to `CC(C)=CCc1ccc2[nH]c3c(c2c1)C[C@@H]1CC[C@@]2(O)C4=CC(=O)[C@@H](C(C)(C)O)O[C@H]4CC[C@]2(C)[C@@]31C`, the IC50 was 6.6 µM.
Next, `CC(C)(O)[C@@H]1CC[C@]2(C)[C@H](CC[C@@]3(C)[C@H]2CC[C@H]2Cc4c([nH]c5ccccc45)[C@@]23C)O1` [PASPALINE]: 77.9 µM.
For the compound `CC(C)(O)[C@H]1O[C@H]2CC[C@@]3(C)[C@@H](CC[C@H]4Cc5c([nH]c6ccccc56)[C@@]43C)[C@]2(O)[C@H](O)[C@H]1O`, the IC50 worked out at 32.2 µM.
With `CC(C)=CCc1cc2[nH]c3c(c2cc1CC=C(C)C)C[C@@H]1CC[C@@]2(O)C4=CC(=O)[C@@H](C(C)(C)O)O[C@H]4CC[C@]2(C)[C@@]31C`, the IC50 amounted to 73.3 µM.
Take `CC(C)(O)[C@@H]1CC=C2[C@H](CC[C@@]3(C)[C@H]2CC[C@H]2Cc4c([nH]c5ccccc45)[C@@]23C)O1`: the half-inhibitory concentration (IC50) stood at 28.3 µM.
Then `CC(C)=CCC[C@](C)(O)[C@H](O)CC/C(C)=C/CC/C(C)=C/Cc1c[nH]c2ccccc12`, with 34.1 µM; and `NC(=O)c1ncn([C@@H]2O[C@H](CO)[C@@H](O)[C@H]2O)n1` [RIBAVIRIN], with 113 µM.
